Target: T1, Progesterone receptor (Homo sapiens, UniProt P06401)
T1 sequence (P06401 whole entry): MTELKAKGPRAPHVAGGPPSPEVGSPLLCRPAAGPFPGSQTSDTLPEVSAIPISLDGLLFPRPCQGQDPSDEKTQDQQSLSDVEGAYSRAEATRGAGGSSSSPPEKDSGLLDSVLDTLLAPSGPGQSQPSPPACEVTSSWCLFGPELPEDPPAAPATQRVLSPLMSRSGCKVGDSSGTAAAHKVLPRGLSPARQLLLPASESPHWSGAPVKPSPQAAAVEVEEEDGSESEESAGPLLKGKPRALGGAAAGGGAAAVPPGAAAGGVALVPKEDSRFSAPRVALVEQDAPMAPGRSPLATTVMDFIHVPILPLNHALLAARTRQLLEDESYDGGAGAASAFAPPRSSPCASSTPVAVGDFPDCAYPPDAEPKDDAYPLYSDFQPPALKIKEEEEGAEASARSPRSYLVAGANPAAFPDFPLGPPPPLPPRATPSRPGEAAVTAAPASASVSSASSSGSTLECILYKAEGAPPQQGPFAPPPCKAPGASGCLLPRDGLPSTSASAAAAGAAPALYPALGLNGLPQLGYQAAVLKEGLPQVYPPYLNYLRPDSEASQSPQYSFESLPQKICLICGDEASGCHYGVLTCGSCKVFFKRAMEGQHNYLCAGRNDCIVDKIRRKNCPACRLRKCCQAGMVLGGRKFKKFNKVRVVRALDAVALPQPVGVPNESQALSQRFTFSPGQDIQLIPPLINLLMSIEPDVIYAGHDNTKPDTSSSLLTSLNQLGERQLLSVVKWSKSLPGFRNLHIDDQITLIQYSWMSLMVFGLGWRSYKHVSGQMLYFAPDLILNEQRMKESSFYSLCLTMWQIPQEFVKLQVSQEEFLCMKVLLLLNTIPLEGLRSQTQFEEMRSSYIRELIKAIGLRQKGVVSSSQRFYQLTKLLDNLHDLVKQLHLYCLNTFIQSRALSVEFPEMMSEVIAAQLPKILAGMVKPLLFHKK
Test: Binding affinity against Progesterone receptor in human TE85 osteosarcoma cells was determined using (Z)-[125I]-17-alpha-(2-iodovinyl)-19-nor-testosterone as radioligand

Compound	IC50
O=C(c1ccc(Cl)c(Cl)c1)N1CCCC(c2ccc(F)cc2)=N1	48.2 nM
O=C(c1ccc(Cl)c(Cl)c1)N1CCCC(c2ccc(Cl)cc2)=N1	84 nM
O=C(c1ccc(Cl)c(Cl)c1)N1CCCC(c2ccccc2)=N1	62.4 nM
O=C(c1ccc(Cl)cc1)N1CCCC(c2ccccc2)=N1	521 nM
CCCCc1ccc(C2=NN(C(=O)c3ccc(Cl)c(Cl)c3)CCC2)cc1	> 1000 nM
O=C1CCC(c2ccccc2)=NN1Cc1ccc(Cl)c(Cl)c1	170 nM
COc1ccc(C2=NN(C(=O)c3ccc(Cl)c(Cl)c3)CCC2)cc1	> 1000 nM
Clc1ccc(CN2CCCC(c3ccccc3)=N2)cc1Cl	> 1000 nM
CC1CC(c2ccccc2)=NN(C(=O)c2ccc(Cl)c(Cl)c2)C1 (centres undefined)	98 nM
CC1CCN(C(=O)c2ccc(Cl)c(Cl)c2)N=C1c1ccccc1 (centres undefined)	24 nM
S=C(c1ccc(Cl)c(Cl)c1)N1CCCC(c2ccccc2)=N1	17.5 nM
O=C(c1ccc(F)c(F)c1)N1CCCC(c2ccccc2)=N1	515 nM
O=C(c1ccc(F)c(Br)c1)N1CCCC(c2ccccc2)=N1	38.2 nM
O=S(=O)(c1ccc(Cl)c(Cl)c1)N1CCCC(c2ccccc2)=N1	> 1000 nM
Cc1ccc(C(=O)N2CCCC(c3ccccc3)=N2)cc1	416 nM
O=C(c1ccc(Cl)c(Cl)c1)N1CC=CC(c2ccccc2)=N1	> 1000 nM
O=C(c1ccc(Br)cc1)N1CCCC(c2ccccc2)=N1	> 1000 nM
O=C(c1ccccc1)N1CCCC(c2ccccc2)=N1	> 1000 nM
CC1(C)CC(c2ccccc2)=NN(C(=O)c2ccc(Cl)c(Cl)c2)C1	75.3 nM
CCc1ccc(C2=NN(C(=O)c3ccc(Cl)c(Cl)c3)CCC2)cc1	570 nM
O=C(c1cccc(Cl)c1)N1CCCC(c2ccccc2)=N1	70.6 nM
COc1ccc(C(=O)N2CCCC(c3ccccc3)=N2)cc1	> 1000 nM
O=C(c1ccc(Cl)c(C(F)(F)F)c1)N1CCCC(c2ccccc2)=N1	270 nM
CC(C)(C)c1ccc(C(=O)N2CCCC(c3ccccc3)=N2)cc1	> 1000 nM

Source: ChEMBL document CHEMBL1128701 (J Med Chem, 1995)
